{"source": "patent US9040591B2", "about": "“Methods and compositions comprising at least one α3 βA4 nAChR antagonist or pharmaceutically acceptable salt thereof” (AGI Therapeutics Public Limited Company, priority 2003, dated 2015)", "key": {"[1]": {"test_system": "patients with dominant chronic diarrhea symptoms (functional diarrhea)", "experiment": "Example 3 randomized, double-blind, placebo-controlled forced dose escalation study in Functional Diarrhea", "assay_type": "in vivo, human", "settings": "for number of patients showing improvement in stool consistency / percent of patients showing improvement in stool consistency: modified per-protocol population", "text": "Eight-two patients (both male and female) meeting ROME II criteria (modified) for Functional Diarrhea were randomized in the study. […] For example, the following table summarizes the number of patients showing “improvement” in stool consistency. Prior to treatment, patients were to be experiencing >50% of the time, a mushy/watery stool consistency in at least 75% of their daily stools. “Improvement” represents a patient experiencing <50% of the time, a mushy/watery stool consistency in at least 75% of daily stools."}, "[2]": {"experiment": "Clinical study of transdermal mecamylamine patches in smokers, treatment emergent effects", "assay_type": "in vivo, human", "settings": "for Side effect: Constipation: transdermal patches of Example 1, smokers but otherwise healthy subjects", "text": "The mecamylamine transdermal formulation is a transdermal patch that contains mecamylamine blended with an acrylic adhesive that is coated onto a printed backing to produce transdermal patches."}, "[3]": {"experiment": "Pharmacokinetics of oral conventional formulation in adults (Young et al. 2001)", "assay_type": "in vivo, human adults", "settings": "expected", "protocol": "Bear et al., Am. J. Physiol., 186, 180-86 (1956). […] Young et al., Clinical Therapeutics, 23(4) (2001). […] The typical dose used for treating hypertensive subjects is about 25 mg/day, and is dosed using conventional formulations."}, "[4]": {"experiment": "Second clinical trial, treatment emergent effects associated with ganglion blocking activity", "assay_type": "in vivo, human", "protocol": "In a second clinical trial, the frequency of treatment emergent effects typically associated with “ganglion blocking” activity was assessed. The following treatment emergent effects were found: […]"}, "[5]": {"settings": "2.5 mg dose, conventional formulation, adults; cited from earlier work"}, "[6]": {"settings": "transdermal patches of Example 1, smokers"}}, "note": "Where a name gives a salt, the structure may show the parent alone.", "data": [{"smiles": "CNC1(C)C2CCC(C2)C1(C)C", "note": "(stereo not drawn) [Mecamylamine, N-2,3,3-tetramethylbicyclo-[2.2.1]heptan-2-amine]", "values": [{"measurement": "overall incidence of adverse events versus placebo", "setting": "[1]; 12-week study", "value": "similar"}, {"measurement": "changes in blood pressure", "setting": "[1]; 12-week study, FIGS. 1 and 2", "value": "no clinically significant changes in blood pressure"}, {"measurement": "number of patients showing improvement in stool consistency", "setting": "[1]; Entire Study", "value": "8/18"}, {"measurement": "percent of patients showing improvement in stool consistency", "setting": "[1]; Entire Study", "value": 44.4, "unit": "%"}, {"measurement": "number of patients showing improvement in stool consistency", "setting": "[1]; Week 4 (2 mg/day)", "value": "8/18"}, {"measurement": "percent of patients showing improvement in stool consistency", "setting": "[1]; Week 4 (2 mg/day)", "value": 44.4, "unit": "%"}, {"measurement": "number of patients showing improvement in stool consistency", "setting": "[1]; Week 8 (4 mg/day)", "value": "8/18"}, {"measurement": "percent of patients showing improvement in stool consistency", "setting": "[1]; Week 8 (4 mg/day)", "value": 44.4, "unit": "%"}, {"measurement": "number of patients showing improvement in stool consistency", "setting": "[1]; Week 12 (6 mg/day)", "value": "9/18"}, {"measurement": "percent of patients showing improvement in stool consistency", "setting": "[1]; Week 12 (6 mg/day)", "value": 50.0, "unit": "%"}, {"measurement": "primary and secondary endpoints versus placebo", "setting": "[1]; intent-to-treat analysis, entire 12 weeks of dose-escalation therapy", "value": "failed to show any statistically significant difference from placebo"}, {"measurement": "stool consistency versus placebo", "setting": "[1]; intent-to-treat analysis, week 4 (2 mg/day)", "value": "improvement in stool consistency"}, {"measurement": "stool consistency versus placebo", "setting": "[1]; modified per-protocol population (n=35), entire dose-escalation and each dose treatment phase", "value": "significant improvements in stool consistency"}, {"measurement": "Side effect: Application", "setting": "[2]; [6]", "value": 25, "unit": "%"}, {"measurement": "Side effect: Asthenia", "setting": "[2]; [6]", "value": 14, "unit": "%"}, {"measurement": "Side effect: Dizziness", "setting": "[2]; [6]", "value": 17, "unit": "%"}, {"measurement": "Side effect: Headache", "setting": "[2]; [6]", "value": 36, "unit": "%"}, {"measurement": "Side effect: Insomnia", "setting": "[2]; [6]", "value": 14, "unit": "%"}, {"measurement": "Side effect: Nausea", "setting": "[2]; [6]", "value": 15, "unit": "%"}, {"measurement": "Side effect: Rash", "setting": "[2]; [6]", "value": 13, "unit": "%"}, {"measurement": "Side effect: Constipation", "setting": "[2]", "value": 42, "unit": "%"}, {"measurement": "Side effect: Constipation", "setting": "[2]; listed as mecamylamine", "value": 42, "unit": "%"}, {"measurement": "24 hour plasma concentration level as % of peak plasma concentration", "setting": "[3]", "value": "less than 25%"}, {"measurement": "time for which about 50% of the peak plasma concentration is maintained", "setting": "[3]", "value": "about 14 hours"}, {"measurement": "Side effect: Cardiac Disorder", "setting": "[4]", "value": 1.3, "unit": "%"}, {"measurement": "Side effect: Constipation", "setting": "[4]", "value": 28.9, "unit": "%"}, {"measurement": "Side effect: Dizziness", "setting": "[4]", "value": 4.0, "unit": "%"}, {"measurement": "Side effect: Dry Mouth", "setting": "[4]", "value": 3.4, "unit": "%"}, {"measurement": "Side effect: Eye", "setting": "[4]", "value": 0.7, "unit": "%"}, {"measurement": "Side effect: Gastrointestinal", "setting": "[4]", "value": 4.36, "unit": "%"}, {"measurement": "Side effect: Nausea", "setting": "[4]", "value": 5.4, "unit": "%"}, {"measurement": "Side effect: Urinary Retention", "setting": "[4]", "value": 0.7, "unit": "%"}]}, {"smiles": "CNC1(C)C2CCC(C2)C1(C)C", "note": "(stereo not drawn) [mecamylamine hydrochloride, N-2,3,3-tetramethylbicyclo[2.2.1]heptan-2-amine hydrochloride]", "values": [{"measurement": "maximum plasma concentration (Cmax)", "setting": "[5]", "value": "about 7.89 ng/mL"}]}]}
